Experimental findings from PubChem BioAssay (NCI) are described below.

Some test systems named below: 786-0 renal; A498 renal; COLO 205 colon; HL-60(TB) leukemia; MOLT-4 leukemia; NCI-H226 lung; NCI-H460 lung; NCI/ADR-RES ovarian; RXF 393 renal; UACC-257 melanoma.
Common to all, as to test: inhibition of tumour cell growth, NCI panel, 48 h

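Cultured in 96-well plates, cells were exposed to test compound for 48 hours across five concentrations. Here, GI50 denotes the concentration required for 50% inhibition of growth. Definition used: TGI = concentration required for complete inhibition of growth.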 A value given as a limit tells only on which side of the number the result lay.

As for `OC(CCNCc1ccccc1)c1ccc2ccccc2c1` (stereo unspecified), the TGI came to 35.9 µM with 786-0 renal; 40 µM in the assay on A498 renal; 47.2 µM with COLO 205 colon; 43.2 µM in the assay on HL-60(TB) leukemia; 84.8 µM in the assay with MOLT-4 leukemia; 46.7 µM in the assay on NCI-H226 lung. In addition, the TGI with NCI-H460 lung was determined as 35.1 µM; in the assay with NCI/ADR-RES ovarian it was 49.4 µM; with RXF 393 renal, 37.1 µM; in the assay with UACC-257 melanoma, 32.2 µM.

Regarding `CCOC(=O)c1c(N2CCCC2)ncn(Cc2ccccc2)c1=S`, the TGI in the assay with 786-0 renal, with A498 renal, with COLO 205 colon, in the assay with HL-60(TB) leukemia, with MOLT-4 leukemia and in the assay with NCI-H226 lung was above 100 µM throughout. The TGI with NCI-H460 lung, in the assay on NCI/ADR-RES ovarian, with RXF 393 renal and in the assay with UACC-257 melanoma was above 100 µM throughout.

For the compound `COc1ccc(NC(C)=O)cc1N1C(=O)/C(=C\c2cc(OC)c(OC)c(OC)c2)SC1c1ccccc1` (stereo unspecified), the TGI with 786-0 renal is above 100 µM; in the assay on A498 renal it was above 100 µM; in the assay with COLO 205 colon, above 100 µM; with HL-60(TB) leukemia it was 41 µM; in the assay on MOLT-4 leukemia, 65.6 µM; in the assay on NCI-H226 lung, above 100 µM. For the same compound, the TGI with NCI-H460 lung, in the assay with NCI/ADR-RES ovarian, with RXF 393 renal and in the assay on UACC-257 melanoma was above 100 µM throughout.

Consider `COC(=O)[C@H]1CO[C@H]2C/C(C)=C/CC/C(C)=C/CC[C@@]3(C)O[C@@H]3C[C@H]21`, for which the TGI in the assay with 786-0 renal was above 50 µM; in the assay with A498 renal, above 50 µM; in the assay on COLO 205 colon it was 22.6 µM; in the assay on HL-60(TB) leukemia it was 26.2 µM; in the assay on MOLT-4 leukemia, 28.7 µM; in the assay with NCI-H226 lung, 29.2 µM. For the same compound, the TGI in the assay on NCI-H460 lung is 21.9 µM; with NCI/ADR-RES ovarian, 29 µM; in the assay with RXF 393 renal it was 42.6 µM; in the assay on UACC-257 melanoma, above 50 µM.

Take `COC(=O)c1c(OC(C)=O)ccc2c1c1c(n2C)C(=O)c2ccccc2C1=O`: the TGI in the assay with 786-0 renal is above 100 µM; in the assay on A498 renal, 41.7 µM; with COLO 205 colon, above 100 µM; with HL-60(TB) leukemia, above 100 µM; with MOLT-4 leukemia it was above 100 µM; in the assay on NCI-H226 lung, above 100 µM. The TGI in the assay with NCI-H460 lung was above 100 µM; in the assay with NCI/ADR-RES ovarian, above 100 µM; with RXF 393 renal it was above 100 µM; in the assay on UACC-257 melanoma it was 44.8 µM.

`COc1ccc(-c2cc(-c3ccc(Nc4ccnc5cc(Cl)ccc45)cc3)[nH]c(=O)c2C#N)c2ccccc12`: the TGI was 18.3 µM in the assay on 786-0 renal; 49.7 µM in the assay on A498 renal; 6.89 µM with COLO 205 colon; 6.04 µM in the assay on HL-60(TB) leukemia; 6.17 µM in the assay on MOLT-4 leukemia; above 100 µM in the assay with NCI-H226 lung. The TGI is above 100 µM in the assay with NCI-H460 lung, above 100 µM with NCI/ADR-RES ovarian, 28.3 µM with RXF 393 renal and 99.4 µM in the assay on UACC-257 melanoma.

On to `C(CCCCc1nnc(N2CCCCC2)o1)CCCc1nnc(N2CCCCC2)o1`, for which the TGI with 786-0 renal, in the assay on A498 renal, in the assay on COLO 205 colon, in the assay on HL-60(TB) leukemia, in the assay on MOLT-4 leukemia and with NCI-H226 lung was above 100 µM in each case. For the same compound, the TGI with NCI-H460 lung, with NCI/ADR-RES ovarian, in the assay with RXF 393 renal and in the assay on UACC-257 melanoma was above 100 µM throughout.

Regarding `CC(C)(Oc1ccc(Cl)cc1)C(=O)N(C(=O)N1CCC(c2ccccc2)CC1)c1ccccc1`, the TGI with 786-0 renal is above 100 µM; with A498 renal it was above 100 µM; in the assay with COLO 205 colon, above 62.5 µM; with HL-60(TB) leukemia, 29 µM; in the assay with MOLT-4 leukemia, above 28.3 µM; in the assay with NCI-H226 lung, above 100 µM. Moreover, the TGI in the assay on NCI-H460 lung, with NCI/ADR-RES ovarian, with RXF 393 renal and in the assay on UACC-257 melanoma was above 100 µM each time.

Regarding `O=C(Nc1nc2ccccc2s1)c1cc([N+](=O)[O-])ccc1Cl`, the TGI is above 58.6 µM in the assay with 786-0 renal; above 100 µM with A498 renal; above 100 µM with COLO 205 colon; 4.41 µM in the assay with HL-60(TB) leukemia; 9.93 µM in the assay with MOLT-4 leukemia; above 100 µM in the assay with NCI-H226 lung. Also, the TGI in the assay on NCI-H460 lung was above 59.4 µM; in the assay with NCI/ADR-RES ovarian, above 76.4 µM; with RXF 393 renal, 15.9 µM; in the assay with UACC-257 melanoma it was above 100 µM.

Consider `CCOC(=O)c1cc2c3c(c(C(C)=O)c(O)c2[nH]1)N(CC(C)CC)CC3` (stereo unspecified), for which the TGI in the assay with 786-0 renal, in the assay on A498 renal, with COLO 205 colon, with HL-60(TB) leukemia, with MOLT-4 leukemia and with NCI-H226 lung was above 100 µM throughout. For the same compound, the TGI with NCI-H460 lung, in the assay on NCI/ADR-RES ovarian, in the assay with RXF 393 renal and in the assay with UACC-257 melanoma was above 100 µM in each case.

Turning to `N#Cc1ccccc1-c1nc2c3c(c(N)ccc3n1)C(=O)c1ccccc1-2`, the TGI in the assay with 786-0 renal, in the assay with A498 renal, with COLO 205 colon, in the assay on HL-60(TB) leukemia, in the assay with MOLT-4 leukemia and in the assay with NCI-H226 lung was above 100 µM each time. Further, the TGI with NCI-H460 lung, in the assay on NCI/ADR-RES ovarian, in the assay on RXF 393 renal and in the assay on UACC-257 melanoma was above 100 µM in each case.

Turning to `CC1(O)CC(=O)c2c(cc3ccc(-c4c5c(c(O)c6c(O)cccc46)C(=O)CC(C)(O)C5)c(O)c3c2O)C1` (stereo unspecified), the TGI with 786-0 renal was determined as 7.64 µM; with A498 renal, 3.53 µM; in the assay on COLO 205 colon, 0.158 µM; with HL-60(TB) leukemia it was 0.772 µM; in the assay with MOLT-4 leukemia, 8.36 µM; with NCI-H226 lung, 2.16 µM. Further, the TGI is 5.64 µM with NCI-H460 lung, 6.63 µM with NCI/ADR-RES ovarian, 1.11 µM in the assay on RXF 393 renal and 1.3 µM with UACC-257 melanoma. Moreover, the GI50 with COLO 205 colon was 0.0361 µM.

As to `Nc1ccccc1CC(O)C(=O)O` (stereo unspecified), the TGI with 786-0 renal, in the assay on A498 renal, with COLO 205 colon, in the assay on HL-60(TB) leukemia, with MOLT-4 leukemia and with NCI-H226 lung was above 100 µM in each case. Also, the TGI in the assay with NCI-H460 lung, in the assay with NCI/ADR-RES ovarian, with RXF 393 renal and with UACC-257 melanoma was above 100 µM throughout.
